Test results: patent US9808003B2, “Herbicidally active 2-(substituted-phenyl)-cyclopentane-1,3-dione compounds and derivatives thereof” (Syngenta Limited, priority 2013, dated 2017)
Several values for one entry are separate records, joined by “and”; a condition that tells them apart may be missing. Equal values may be shown once.

Assays:
Type in all cases: in vivo
[1] = system: Alopecurus myosuroides (ALOMY); assay: Test 1B glasshouse assay, post-emergence herbicidal activity against grassy weeds; conditions: 14 DAA
Method in brief: (§1)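 Herbicide applied post-emergence at rates such as 60 g/ha (±50 g/ha cloquintocet-mexyl) or 90 and 120 g/ha (with safener), rates varying per compound. Plants kept at 22/16 °C, watered twice daily; percentage phytotoxicity scored visually after 14 days.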

Avena fatua (AVEFA) = assay: as above; conditions: 14 DAA
Method in brief: as §1

[2] = system: Lolium multiflorum (LOLMU); assay: as above; conditions: 14 DAA
Method in brief: as §1

Poa annua (POAAN) = assay: as above; conditions: 14 DAA
Method in brief: as §1

Setaria viridis (SETVI) = assay: as above; conditions: 14 DAA
Method in brief: as §1

Spring Wheat “Teal” = assay: Test 1B glasshouse assay, post-emergence herbicidal activity against cereal crops; conditions: 14 DAA
Method in brief: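 Visual percentage damage (100% = total, 0% = none) read 14 days after application, averaged over two replicates. Plants grown 14 days at 22/16 °C day/night before post-emergence spraying of unformulated compound (IF50/acetone, 0.5% v/v Adigor). Rates usually 60–120 g/ha; cloquintocet-mexyl 50 g/ha co-applied where stated.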

Spring Wheat “Freya” = assay: as above
[3] = 30 g/ha herbicide, 50 g/ha cloquintocet-mexyl
[4] = 45 g/ha herbicide, 50 g/ha cloquintocet-mexyl
[5] = 60 g/ha herbicide, 0 g/ha cloquintocet-mexyl
[6] = 60 g/ha herbicide, 50 g/ha cloquintocet-mexyl
[7] = herbicide 30 g/ha, cloquintocet-mexyl 50 g/ha
[8] = herbicide 60 g/ha, cloquintocet-mexyl 0 g/ha
[9] = herbicide 60 g/ha, cloquintocet-mexyl 50 g/ha

SMILES | Post-emergence herbicidal activity, percentage phytotoxicity, ALOMY [1, 3] | Post-emergence herbicidal activity, percentage phytotoxicity, ALOMY [1, 4] | Post-emergence herbicidal activity, percentage phytotoxicity, ALOMY [1, 5] | Post-emergence herbicidal activity, percentage phytotoxicity, ALOMY [1, 6] | Post-emergence herbicidal activity, percentage phytotoxicity, AVEFA (Avena fatua (AVEFA); [3]) | Post-emergence herbicidal activity, percentage phytotoxicity, AVEFA (Avena fatua (AVEFA); [4]) | Post-emergence herbicidal activity, percentage phytotoxicity, AVEFA (Avena fatua (AVEFA); [5]) | Post-emergence herbicidal activity, percentage phytotoxicity, AVEFA (Avena fatua (AVEFA); [6]) | Post-emergence herbicidal activity, percentage phytotoxicity, LOLMU [2, 3] | Post-emergence herbicidal activity, percentage phytotoxicity, LOLMU [2, 4] | Post-emergence herbicidal activity, percentage phytotoxicity, LOLMU [2, 5] | Post-emergence herbicidal activity, percentage phytotoxicity, LOLMU [2, 6] | Post-emergence herbicidal activity, percentage phytotoxicity, POAAN (Poa annua (POAAN); [3]) | Post-emergence herbicidal activity, percentage phytotoxicity, POAAN (Poa annua (POAAN); [4]) | Post-emergence herbicidal activity, percentage phytotoxicity, POAAN (Poa annua (POAAN); [5]) | Post-emergence herbicidal activity, percentage phytotoxicity, SETVI (Setaria viridis (SETVI); [3]) | Post-emergence herbicidal activity, percentage phytotoxicity, SETVI (Setaria viridis (SETVI); [4]) | Post-emergence herbicidal activity, percentage phytotoxicity, SETVI (Setaria viridis (SETVI); [5]) | Post-emergence herbicidal activity, percentage phytotoxicity, SETVI (Setaria viridis (SETVI); [6]) | Percentage Phytotoxicity Spring Wheat “Freya” (Spring Wheat “Freya”; [7]) | further results
Cc1cc(C)c(C2C(=O)CC(CCNC(=O)c3cccc(F)n3)C2=O)c(C)c1 (racemic) [Compound A89] | 88% and 80% | 97% | 98% and 99% | 98% | 83% and 85% | 85% | 90% and 97% | 90% and 93% | 90% and 93% | 99% | 100% | 100% and 95% | 0% | 3% | 25% and 15% | 100% and 95% | 100% | 100% and 99% | 100% | 13% | Post-emergence herbicidal activity against cereal crops, percentage phytotoxicity, Spring Wheat “Teal” (Spring Wheat “Teal”; [3]): 13%; Post-emergence herbicidal activity against cereal crops, percentage phytotoxicity, Spring Wheat “Teal” (Spring Wheat “Teal”; [4]): 20%; Post-emergence herbicidal activity against cereal crops, percentage phytotoxicity, Spring Wheat “Teal” (Spring Wheat “Teal”; [5]): 75%; Post-emergence herbicidal activity against cereal crops, percentage phytotoxicity, Spring Wheat “Teal” (Spring Wheat “Teal”; [6]): 50%; Percentage Phytotoxicity Spring Wheat “Freya” (Spring Wheat “Freya”; [8]): 70%; Percentage Phytotoxicity Spring Wheat “Freya” (Spring Wheat “Freya”; [9]): 38%
Cc1cc(C)c(C2C(=O)CC(CCNC(=O)c3ccc(Br)cn3)C2=O)c(C)c1 (racemic) [Compound A120, 5-bromo-N-{2-[2,4-dioxo-3-(2,4,6-trimethylphenyl)cyclopentyl]ethyl}pyridine-2-carboxamide] | 75% | 80% | 85% | 80% | 75% | 78% | 85% | 78% | 98% | 99% | 100% | 99% | 3% | 3% | 10% | 100% | 100% | 100% | 100% | 18% | Post-emergence herbicidal activity, percentage phytotoxicity, POAAN (Poa annua (POAAN); [6]): 3%; Percentage Phytotoxicity Spring Wheat “Freya” (Spring Wheat “Freya”; herbicide 45 g/ha, cloquintocet-mexyl 50 g/ha): 30%; Percentage Phytotoxicity Spring Wheat “Freya” (Spring Wheat “Freya”; [8]): 55%; Percentage Phytotoxicity Spring Wheat “Freya” (Spring Wheat “Freya”; [9]): 30%
